This is an account of results in US8236963B2, “Tricyclic spiro derivatives as CRTH2 modulators” (Merck Serono SA, priority 2005, dated 2012).

Usually inhibition in vivo stands for how much of the control response was suppressed. A high value points to a response far below the control. A word on the Ki: it is a measure of affinity in units of concentration, obtained from inhibition or displacement. The low end stands for higher affinity, the high end for lower affinity. For orientation: inhibition means the relative decrease from the control value, in per cent. By melting point is commonly meant the temperature of the solid-liquid transition.

Data set [1] concerns DNFB-induced ear swelling. Nature of the data set: CHS model (contact hypersensitivity to DNFB, ear swelling). The format is in vivo, Balb/c mice. The note with it: 60 mg/kg; po; 30 min before DNFB challenge; ear thickness on day 6. The text has this: The contact hypersensitivity model can be used to evaluate the therapeutic efficacy of spiro derivatives on skin inflammation mediated by T cells. The model is well established for characterization of compound for dermatological indications like psoriasis and allergic contact dermatitis (Xu et al. J Exp Med. 183, 1001-12, 1996). It involves a sensitization phase and a subsequent challenge with an antigen (DNFB, 2,4-dinitrofluorbenzene). […] The edema can be measured by caliper at the challenged site (ear of the mice). Intravenous or oral administration with 10% Labrasol as vehicle of the compounds of the invention 30 min before challenge with DNFB results in a decrease of the swelling and therefore reduces inflammation in the skin compared to positive controls treated with vehicle only before challenge with the antigen. Negative control mice are not sensitized, but challenged with DNFB, therefore no T cell dependent inflammation occurs and no edema is formed. Balb/c mice were obtained from CharlesRiver (Calcco, Italy). […]
Mice were sensitized and challenged to elicit CHS to DNFB. […] Ear thickness was monitored on day 6 (1 day after challenge) using a caliper (Mitutoyo, Milan, Italy). Ear swelling was calculated as ((Tn−T5)right ear−(Tn−T5)left ear), wherein Tn and T5 represent values of ear thickness at day n of investigation and day 5 prior to challenge, respectively.

Data set [2] relates to DK-PGD2-induced vascular leakage. As to the kind of experiment: Model of DK-PGD2-induced vascular leakage in mice. The format is in vivo, Balb/c mice. Particulars: Mus musculus, 1.5 h; dose of 30 mg/kg; 30 min before DK-PGD2 challenge; Evans blue extravasation. Here is the method: This test is described in Takeshita et al. (2004). Balb/c mice (Elevage Janvier) (8 week old) received an intradermal injection of DK-PGD2 (10 μg in 30 μl) on their shaved backs and an intravenous injection of Evans blue solution (25 mg/kg) 30 min after administration of the test molecules (spiro derivative). Ninety minutes after the challenge, the animals were sacrificed. The skin of the back was removed and blood was sampled. The extravasated dye (punch diameter: 5 mm) was extracted by 0.2 ml of formamide and was quantified by fluorescence (E1: 585 nm, E2: 660 nm). The Evans Blue extravasation ratio was expressed as the following: skin/serum×1000.

In data set [3] the target is T1, CRTH2 (Homo sapiens, UniProt Q9Y5Y4).
T1 sequence (Q9Y5Y4 1-395): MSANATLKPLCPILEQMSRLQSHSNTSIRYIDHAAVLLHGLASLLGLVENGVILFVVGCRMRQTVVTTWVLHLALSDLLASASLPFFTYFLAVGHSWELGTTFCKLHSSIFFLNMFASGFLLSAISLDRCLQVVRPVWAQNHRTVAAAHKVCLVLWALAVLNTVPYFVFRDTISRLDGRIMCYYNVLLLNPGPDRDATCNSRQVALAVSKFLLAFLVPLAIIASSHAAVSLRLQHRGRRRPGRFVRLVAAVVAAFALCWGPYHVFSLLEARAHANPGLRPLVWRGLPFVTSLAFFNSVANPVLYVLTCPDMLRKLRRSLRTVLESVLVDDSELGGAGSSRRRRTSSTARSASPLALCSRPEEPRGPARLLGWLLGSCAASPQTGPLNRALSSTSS
As to the kind of experiment: Determination of Ki (radioligand binding assay, equilibrium competition against [3H]PGD2). Particulars: average of at least three independent dose response experiments. More on the design: expressed in transfected cells; host or cells: HEK293 (EBNA) cells, membrane preparation. How it is done: The inhibitory activity can be investigated by a radioligand binding assay (Sawyer et al., Br. J. Pharmocol 2002, 137, 1163-72). The radioligand binding assay was performed at room temperature in binding buffer (10 mM HEPES/KOH pH […], with protease inhibitor cocktail tablets), containing 1.5 nM [^3H]PGD2 (Amersham, 156 Cie/mmol), and 10 μg of hCRTH2 HEK293 (EBNA) cell membrane protein in a final volume of 100 μl in 96 well plates (Corning, USA). Non-specific binding was determined in the presence of 1 μM PGD2 (Cayman, USA). Competing spiro-indolinones were diluted in dimethylsulphoxide so that the total volume of dimethylsulfoxide was kept constant at 1% dimethylsulphoxide (Me2SO) Serial dilutions of 100 μM and […] were prepared. 10 μl each of these spiro-indolinone stock solutions were added. Incubation (60 min at room temperature) was terminated by rapid filtration through 96 wells hydrophobic GF/C Unifilter plates (Whatman, USA). Filters were washed twice with 250 μl of Tris-HCl pH 7.4, 10 mM MnCl2, and residual radioligand bound to the filters was mixed to 100 μl of liquid scintillation cocktail (Optiphase Supermix, Perkin Elmer, USA) and binding activity was determined by counting residual radioligand using a 1450 Micro-beta scintillation counter (Wallac, UK). The following representative compounds were tested. All inhibited the binding of PGD2 to CRTH2 by more than 70%. • (1′-benzyl-5-chloro-2,2′,5′-trioxospiro[indole-3,3′-pyrrolidin]-1(2H)-yl)acetic acid • (1′-benzyl-5-fluoro-2,2′,5′-trioxospiro[indole-3,3′-pyrrolidin]-1(2H)-yl)acetic acid • 4-(1′-allyl-5-chloro-2,2′,5′-trioxospiro[indole-3,3′-pyrrolidin]-1(2H)-yl)butanoic acid • [5-chloro-1′-(2-methoxyethyl)-2,2′,5′-trioxospiro[indole-3,3′-pyrrolidin]-1(2H)-yl]acetic acid • 4-(1′-benzyl-5-chloro-2,2′,5′-trioxospiro[indole-3,3′-pyrrolidin]-1(2H)-yl)butanoic acid • (1′-benzyl-5-methoxy-2,2′,5′-trioxospiro[indole-3,3′-pyrrolidin]-1(2H)-yl)acetic acid • [5-fluoro-1′-[(2-methoxyethoxy)methyl]-2,2′,5′-trioxospiro[indole-3,3′-pyrrolidin]-1(2H)-yl]acetic acid • 4-(1′-allyl-5-fluoro-2,2′,5′-trioxospiro[indole-3,3′-pyrrolidin]-1(2H)-yl)butanoic acid • 4-(1′-benzyl-5-fluoro-2,2′,5′-trioxospiro[indole-3,3′-pyrrolidin]-1(2H)-yl)butanoic acid
Ki values were determined by equilibrium competition binding experiments against [^3H]PGD2. Ki values were calculated from the formula below and represent the average of at least three independent dose response experiments. The Ki values give the ligand concentrations necessary to inhibit 50% of the binding of [^3H]PGD2 to CRTH2. Ki=IC50/(1+[Concentration of Ligand]/Kd)]
All experiments were performed in 96 well plates, in a final volume of 100 μl according to the above described filtration assay. The concentration of membranes and 3 [H]PGD2, as well as the positive and negative controls were identical to the conditions described above.

Data set [4] has as its target T1, CRTH2. As to the kind of experiment: Radioligand binding assay ([3H]PGD2, hCRTH2 HEK293 (EBNA) cell membranes). More on the design: expressed in transfected cells; host or cells: HEK293 (EBNA) cells, membrane preparation. Particulars: 1.5 nM [3H]PGD2, 10 μg hCRTH2 HEK293 (EBNA) membrane protein, 60 min at room temperature. The text has this: Human CRTH2 cDNA was amplified by PCR using a human urinary bladder cDNA library as a template and specific primers containing HindIII and BamHI restriction sites for cloning into the pCEP4 vector (Invitrogen). The vector construction is described in detail in Sawyer et al., Br. J. Pharmocol 2002, 137, 1163-72. The nucleotide sequence of the cloned cDNA was identical the previously reported hCRTH2 sequence (Nagata et al, 1999, J. Immunol. 162, 1278-1286).
HEK293 (EBNA) cells were transfected with the pCEP4-hCRTH2 construct using the calcium phosphate technique. Cells were maintained in culture at 37° C. in an atmosphere of 5% CO2 in Dulbecco's modified Eagle's F12 medium (Invitrogen), containing 10% heat-inactivated foetal calf serum (TerraCell International, Canada), 2 mM Glutamine, 100 units/ml of penicillin and 100 μg/ml streptomycin (Invitrogen). 48 hours after the transfection, cells were grown in presence of 300 μg/ml of Hygromycin B (Invitrogen) for 4 weeks and antibiotic resistant cells were amplified for cell membrane preparation.
Adherent HEK293 (EBNA) cells expressing hCRTH2 were cultured in 225 cm^2 cell culture flasks (Corning, USA) in 30 ml of medium. After two rinses of phosphate buffered saline (PBS), cells were harvested in 10 ml of PBS containing 1 mM EDTA, centrifuged at 500×g for 5 min at 4° C. and frozen at −80° C. The pellet was re-suspended in 50 mM Tris-HCl, pH 7.4, 2 mM EDTA, 250 mM Sucrose, containing protease inhibitor cocktail tablets, (Complete EDTA-free, Roche, Germany) and incubated 30 min at 4° C. Cells were disrupted by nitrogen cavitation (Parr Instruments, USA) at 4° C. (800 p.s.i. for 30 min), and centrifuged at 500×g for 10 min at 4° C. Pellet containing nuclei and cellular debris was discarded and supernatant was centrifuged 60 min at 4° C. at 45000×g. Membrane pellet was re-suspended in storage buffer (10 mM HEPES/KOH pH 7.4, 1 mM EDTA, 250 mM sucrose, protease inhibitor cocktail tablets) using Dounce homogenization and frozen in liquid nitrogen, and stored at −80° C.
The inhibitory activity can be investigated by a radioligand binding assay (Sawyer et al., Br. J. Pharmocol 2002, 137, 1163-72). The radioligand binding assay was performed at room temperature in binding buffer (10 mM HEPES/KOH pH […], with protease inhibitor cocktail tablets), containing 1.5 nM [^3H]PGD2 (Amersham, 156 Cie/mmol), and 10 μg of hCRTH2 HEK293 (EBNA) cell membrane protein in a final volume of 100 μl in 96 well plates (Corning, USA). Non-specific binding was determined in the presence of 1 μM PGD2 (Cayman, USA). Competing spiro-indolinones were diluted in dimethylsulphoxide so that the total volume of dimethylsulfoxide was kept constant at 1% dimethylsulphoxide (Me2SO) Serial dilutions of 100 μM and […] were prepared. 10 μl each of these spiro-indolinone stock solutions were added. Incubation (60 min at room temperature) was terminated by rapid filtration through 96 wells hydrophobic GF/C Unifilter plates (Whatman, USA). Filters were washed twice with 250 μl of Tris-HCl pH 7.4, 10 mM MnCl2, and residual radioligand bound to the filters was mixed to 100 μl of liquid scintillation cocktail (Optiphase Supermix, Perkin Elmer, USA) and binding activity was determined by counting residual radioligand using a 1450 Micro-beta scintillation counter (Wallac, UK). The following representative compounds were tested. […]

For `O=C(O)CN1C(=O)[C@]2(CC(=O)N(Cc3cccc(Cl)c3)C2=O)c2cc(Cl)ccc21` [Compound 83, (3S)-[5-chloro-1′-(3-chlorobenzyl)-2,2′,5′-trioxospiro[indole-3,3′-pyrrolidin]-1(2H)-yl]acetic acid], the “reduction in ear swelling” value in data set [1] was 40%. Besides, the inhibition in vivo at 30 mg/kg in data set [2] came out at 77%.
Turning to `O=C(O)CN1C(=O)C2(NC(=O)N(Cc3cc(Cl)ccc3F)C2=O)c2cc(Cl)ccc21` (stereo not drawn) [Compound 105, [5′-chloro-1-(5-chloro-2-fluorobenzyl)-2,2′,5-trioxospiro[imidazolidine-4,3′-indol]-1′(2′H)-yl]acetic acid], the “reduction in ear swelling” value in data set [1] is listed as 55%. The inhibition in vivo at 30 mg/kg in data set [2] amounted to 60%. Also, the Ki at CRTH2 [3] is 16 nM.
In data set [2], `O=C(O)CN1C(=O)C2(CC(=O)N(Cc3ccccc3)C2)c2cc(Cl)ccc21` (stereo not drawn) [Compound 113, (1′-benzyl-5-chloro-2,5′-dioxospiro[indole-3,3′-pyrrolidin]-1(2H)-yl)acetic acid] yielded an inhibition in vivo at 30 mg/kg of 55%. At CRTH2 [3], this molecule gave a Ki of 630 nM.
The like results for `Cc1noc(-c2ccccc2)c1CN1CC2(CC1=O)C(=O)N(CC(=O)O)c1ccc(Cl)cc12` (stereo not drawn) [Compound 114, [5-chloro-1′-[(3-methyl-5-phenylisoxazol-4-yl)methyl]-2,5′-dioxospiro[indole-3,3′-pyrrolidin]-1(2H)-yl]acetic acid] were, in that order, 44% and 3.4 nM.
The matching figures for `O=C(O)CN1C(=O)C2(CC(=O)N(Cc3ccccc3F)C2)c2cc(Cl)ccc21` (stereo not drawn) [Compound 115, [5-chloro-1′-(2-fluorobenzyl)-2,5′-dioxospiro[indole-3,3′-pyrrolidin]-1(2H)-yl]acetic acid]: 45% and 140 nM.
In data set [2], `O=C(O)CN1C(=O)C2(CC(=O)N(Cc3cc(Cl)ccc3F)C2)c2cc(Cl)ccc21` (stereo not drawn) [Compound 116, [5-chloro-1′-(5-chloro-2-fluorobenzyl)-2,5′-dioxospiro[indole-3,3′-pyrrolidin]-1(2H)-yl]acetic acid] came in with an inhibition in vivo at 30 mg/kg of 51%. The same molecule came in with an inhibitory constant (Ki) on CRTH2 [3] of 22 nM.
For the molecule `O=C(O)CN1C(=O)C2(CC(=O)N(Cc3ccccc3)C2=O)c2cc(Cl)ccc21` (stereo not drawn) [Example 12, (1′-Benzyl-5-chloro-2,2′,5′-trioxo-spiro[indole-3,3′-pyrrolidin]-1-yl)acetic acid], the melting point fell in the range of 205 to 207 °C. Further, on CRTH2 [4], the inhibition is over 70%.
